From US20230404988A1, “PROSTAGLANDIN RECEPTOR AGONISTS FOR USE IN THE TREATMENT OF A CORONAVIRUS INFECTION SUCH AS COVID-19” (priority 2020, published 2023)

Key:
[1] = test system: ACE2; experiment: ACE2 expression in A549 cells (RT-PCR/SYBR green PCR, immunoblot); assay type: cell-based, human; settings: incubation of 3 h to 24 h
Method: Human epithelial NSLC cell lines A549 were purchased from ATCC (catalogue number: ATCC CCL-185, American Type Culture Collection (ATCC), Manassas, VA). A549 cells were maintained in DMEM containing 10% fetal bovine serum (FBS), 4 mM GlutaMax (Thermo Scientific, Waltham, MA), 500 μg/mL Normocin (InvivoGen, San Diego, CA), 100 units/mL penicillin, and […] streptomycin (Thermo Scientific).
(§1) Gene downregulation of ACE2 has been evaluated with by RT-PCR and SYBR green PCR analyses. Total RNA was extracted from the cells or tissues and purified with the TRIzol reagent according to the manufacturer's protocol (Invitrogen). RNA was reverse transcribed by SuperScript® III reverse transcriptase (Invitrogen). The genes were amplified by with specific primers designed using BLAST alignment. Three housekeeping gene, GAPDH, (3-actin gene, and rare PBGD (porphobilinogen deaminase) gene were combined for normalization. Relative expression levels have been evaluated with the parameter of (ΔCt) of different human cell lines and human GNB cells after treatment with EP2, EP4 or EP2/EP4 agonists at a dose response concentration varying from 10E-2 to 10E2 fold of their respective EC50 of binding activity on each relevant EP receptor.
(§2) Immunoblot analysis on A549 cells treated with different EP2 and/or EP4 agonists doses ranging from 10E-2 to 10E2 fold of their respective binding EC50 is performed by lysing cells as described by Jia et al. (J. Virol., 2005, 79(23), 14614-14621).

[2] = test system: SARS-CoV-2; assay type: cell-based; settings: human primary cells from airways biopsies infected with SARS-CoV-2 (MOI 0.001), 10 μM, day 2 post-infection, vs non-treated cells (FIG. 1)
[3] = test system: ACE2; experiment: ACE2 expression in human primary ciliated cells obtained by gentle nasal brushing (RT-PCR/SYBR green PCR, immunoblot); assay type: cell-based; settings: GNC cells, incubation of 3 h to 24 h
Method: Human primary ciliated cells obtained by gentle nasal brushing cells (GNBC cells) are collected from different patient sources, as described by Veit et al. (Nat. Med., 2018, 24(11), 1732-1742). Ciliogenesis is performed on cells plated on to poly-lysine-coated coverslips in 3.5-cm plates at 0.4×10^6 cells per well, allowed to attach for 24 hr, and then serum starved for 48 hr.
as §1, §2

[4] = test system: SARS-CoV-2; assay type: cell-based; settings: cells infected with SARS-CoV-2 (Example 4)
[5] = test system: UREC cells; experiment: Microarray transcriptome analysis of UREC cells (Affymetrix Human ClariomD, Reactome/GO analysis); assay type: cell-based
Method: Cell Culture Immortalized temperature-sensitive URECs are maintained and resuspended in complete RCGM (RCGM medium (0.5% FBS), 1.5% (v/v) certified FBS). Cells were seeded at 116,000 cells/well (350 k cells/cm 2) in 200 μl total volume of complete RCGM medium. Seed in triplicates per each experimental condition. Incubate at 39° C. to stop proliferation for 72 hours. After 72 hrs of cell growth, remove complete RCGM media. Replace with fresh complete RCGM media (2% FBS) containing the drug (at either 0.2, 2, or 10 μM) or vehicle control (media alone or 0.04% DMSO) at the appropriate concentration.
RNA Extraction. Extract RNA using RNeasy Micro Kit (Qiagene) using supplier's procedure. In short, disrupt the cells by adding QIAzol Lysis Reagent. Scratch each well with the pipette tip and pipette to mix. Homogenize the cells by vortexing. Adjust sample volume. Homogenize by passing the lysate through a 20-gauge needle. Precipitate proteins using chloroform solution. Load into a RNeasy MinElute column. Wash and elute following supplier's procedure. Prepare sample at a concentration of 5 ng/μl for quality control and measure by spectrometry (Xpose, Trinean) and confirming RNA as a RIN using capillary electrophoresis (TapeStation, Agilent). The average yield of extraction is 0.4±0.2 μg/100,000 cells (1 well of a 96-well plate).
Microarray data analysis. Affymetrix Human ClariomD were used following manufacturers protocols. Affymetrix Human ClariomD data were normalized using quantile normalization with adjustment based on the median intensity of probes with similar GC content (using Affymetrix Power Tools). Background correction was made using the antigenomic probes. Only probes targeting exons annotated from FAST DB v2016_1 transcripts were selected. Probes were considered as expressed if the DABG p-value ≤0.05 (Detection Above Background p-values were calculated using Affymetrix Power Tools) in more or equal than 60% of samples. Genes were considered as expressed if more or equal than 50% of their probes are expressed Minimum 4 selected probes were required to assess gene expression. If possible only high-specific probes were selected (i.e., not overlapping with repeat regions; not cross-hybridizing; and 40≤GC %≤60). In addition, if possible, only probes targeting constitutive gene regions were selected (i.e., targeting at least 75% of transcripts of a given gene). We performed a paired Student's t-test to compare gene intensities in the different biological replicates.
Analysis at the splicing level was first performed taking into account only exon probes (“EXON” analysis) in order to potentially detect new alternative events that could be differentially regulated (i.e., without taking into account known alternative events). Analysis at the splicing level was also performed by taking into account known patterns (“PATTERN” analysis) using the FAST DB splicing patterns annotation (i.e., for each gene, all possible splicing patterns were defined by comparing exon content of transcripts). All types of alternative events can be analyzed: Alternative first exons, alternative terminal exons, cassette exon, mutually exclusive exons, alternative 5′ donor splice site, alternative 3′-acceptor splice sites, intron retention, internal exon deletion and complex events corresponding to mix of several alternative event categories). “EXON” and “PATTERN” analyses were based on the splicing-index calculation. Results were considered statistically significant for uncorrected p-values ≤0.05 and fold-changes ≥2.0. Finally, significant results from “EXON” and “PATTERN” analyses were merged to obtain a single result list.
Unsupervised analysis. The PCA has been performed using “prcomp” function in R and the 2 first dimensions were plotted. The clustering has been performed using “dist” and “hclust” functions in R, using Euclidean distance and Ward agglomeration method. […]

[6] = 71 genes in term, UREC cells, 2 micromolar PGE1 vs non treated control
[7] = UREC cells, 2 micromolar PGE1 vs non treated control, regulation up

With O=C(O)COc1cccc(CN(Cc2ccc(-n3cccn3)cc2)S(=O)(=O)c2cccnc2)c1 [Lab1, taprenepag] the “expression of mRNA of ACE2” value [1] was “significantly reduce”, the “protein level of ACE2” value [1] was “significantly reduce” and the “virus replication (viral RNA)” value [2] was “able to decrease virus replication”. The “expression of mRNA of ACE2” value [3] was “significantly reduce”, the “protein level of ACE2” value [3] was “significantly reduce” and the “effect on SARS-CoV-2 infection” value [4] was “significant effect”.

In the case of CC#CCC(C)[C@H](O)/C=C/[C@@H]1[C@H]2C/C(=C/CCCC(=O)O)C[C@H]2C[C@H]1O (stereo partly shown) [Lab2, iloprost], the “effect on SARS-CoV-2 infection” value [4] is reported as “significant effect”.

With CCCCC(C)(C)[C@H](O)/C=C/[C@H]1[C@H](O)CC(=O)[C@@H]1C/C=C\CCCC(=O)O [Lab3, 16-16-dimethyl-PGE2] the “effect on SARS-CoV-2 infection” value [4] was “significant effect”.

For CCCCC[C@H](O)CC[C@H]1[C@H](O)CC(=O)[C@@H]1CCCCCCC(=O)O [Lab4, 13,14-dihydro-PGE1], the “effect on SARS-CoV-2 infection” value [4] was “significant effect”.

In the case of O=C1CC[C@H](/C=C/[C@@H](O)C(F)(F)c2ccccc2)N1CCCCCCc1nn[nH]n1 [Lab5, L902688], the “effect on SARS-CoV-2 infection” value [4] is reported as “significant effect”.

With CCCCC[C@H](O)/C=C/[C@H]1[C@H](O)CC(=O)[C@@H]1CCCCCCC(=O)O [PGE1, Prostaglandin E1] the “expression of mRNA of ACE2” value [1] was “significantly reduce”, the “protein level of ACE2” value [1] was “significantly reduce” and the “Nb Regulated Genes (Up/Down), GO:0009597 detection of virus” value ([5]; 5 genes in term, UREC cells, 2 micromolar PGE1 vs non treated control) was 3 (3/0). For the same compound, the “Nb Regulated Genes (Up/Down), GO:0035455 response to interferon-alpha” value ([5]; 10 genes in term, UREC cells, 2 micromolar PGE1 vs non treated control) was 4 (4/0), the “Nb Regulated Genes (Up/Down), R-HSA-918233 TRAF3-dependent IRF activation pathway” value ([5]; 14 genes in pathway, UREC cells, 2 micromolar PGE1 vs non treated control) was 4 (4/0) and the “Nb Regulated Genes (Up/Down), R-HSA-168928 RIG-I/MDA5 mediated induction of IFN-alpha/beta pathways” value ([5]; 17 genes in pathway, UREC cells, 2 micromolar PGE1 vs non treated control) was 6 (6/0). The “Nb Regulated Genes (Up/Down), GO:0005164 tumor necrosis factor receptor binding” value ([5]; 29 genes in term, UREC cells, 2 micromolar PGE1 vs non treated control) was 6 (5/1), the “Nb Regulated Genes (Up/Down), R-HSA-933541 TRAF6 mediated IRF7 activation” value ([5]; 33 genes in pathway, UREC cells, 2 micromolar PGE1 vs non treated control) was 4 (4/0) and the “Nb Regulated Genes (Up/Down), R-HSA-936440 Negative regulators of RIG-I/MDA5 signaling” value ([5]; 34 genes in pathway, UREC cells, 2 micromolar PGE1 vs non treated control) was 5 (5/0). For the same compound, the “Nb Regulated Genes (Up/Down), GO:0045071 negative regulation of viral genome replication” value ([5]; 40 genes in term, UREC cells, 2 micromolar PGE1 vs non treated control) was 11 (11/0), the “Nb Regulated Genes (Up/Down), GO:0060337 type I interferon signaling pathway” value ([5]; 64 genes in term, UREC cells, 2 micromolar PGE1 vs non treated control) was 20 (20/0) and the “Nb Regulated Genes (Up/Down), R-HSA-909733 Interferon alpha/beta signaling” value ([5]; 67 genes in pathway, UREC cells, 2 micromolar PGE1 vs non treated control) was 20 (20/0). The “Nb Regulated Genes (Up/Down), GO:0060333 interferon-gamma-mediated signaling pathway” value [5, 6] was 8 (8/0), the “Nb Regulated Genes (Up/Down), GO:0071347 cellular response to interleukin-1” value [5, 6] was 9 (5/4) and the “Nb Regulated Genes (Up/Down), R-HSA-1169408 ISG15 antiviral mechanism” value ([5]; 73 genes in pathway, UREC cells, 2 micromolar PGE1 vs non treated control) was 11 (11/0). For the same compound, the “Nb Regulated Genes (Up/Down), R-HSA-877300 Interferon gamma signaling” value ([5]; 88 genes in pathway, UREC cells, 2 micromolar PGE1 vs non treated control) was 11 (11/0), the “Nb Regulated Genes (Up/Down), GO:0009615 response to virus” value ([5]; 110 genes in term, UREC cells, 2 micromolar PGE1 vs non treated control) was 21 (19/2) and the “Nb Regulated Genes (Up/Down), GO:0051607 defense response to virus” value ([5]; 165 genes in term, UREC cells, 2 micromolar PGE1 vs non treated control) was 27 (25/2). For the same compound, the “Nb Regulated Genes (Up/Down), GO:0006954 inflammatory response” value ([5]; 379 genes in term, UREC cells, 2 micromolar PGE1 vs non treated control) was 22 (12/10), the “Nb Regulated Genes (Up/Down), GO:0006955 immune response” value ([5]; 421 genes in term, UREC cells, 2 micromolar PGE1 vs non treated control) was 26 (19/7) and the “Nb Regulated Genes (Up/Down), GO:0045087 innate immune response” value ([5]; 430 genes in term, UREC cells, 2 micromolar PGE1 vs non treated control) was 30 (27/3). For the same compound, the “Fold-Change BIRC3” value ([5]; UREC cells, 2 micromolar PGE1 vs non treated control, regulation down) was 1.67, the “Fold-Change BST2” value [5, 7] was 1.6 and the “Fold-Change DDX58” value [5, 7] was 2.76. The “Fold-Change DHX58” value [5, 7] was 1.55, the “Fold-Change EIF2AK2” value [5, 7] was 1.74 and the “Fold-Change EIF4E3” value [5, 7] was 1.72. The “Fold-Change FAST DB STABLE ID GSHG0007017 (no gene symbol)” value [5, 7] was 3.58, the “Fold-Change FAST DB STABLE ID GSHG0007018 (no gene symbol)” value [5, 7] was 1.93 and the “Fold-Change GBP2//GBP7” value [5, 7] was 1.62. For the same compound, the “Fold-Change GBP4” value [5, 7] was 1.86, the “Fold-Change HERC5” value [5, 7] was 2.37 and the “Fold-Change HLA-DRA” value [5, 7] was 1.86. The “Fold-Change IFI6” value [5, 7] was 2.51, the “Fold-Change IFI27” value [5, 7] was 1.57 and the “Fold-Change IFI35” value [5, 7] was 1.62. The “Fold-Change IFIH1” value [5, 7] was 2.45, the “Fold-Change IFIT1” value [5, 7] was 5.18 and the “Fold-Change IFIT2” value [5, 7] was 4.84. For the same compound, the “Fold-Change IFIT3” value [5, 7] was 3.99, the “Fold-Change IFITM1” value [5, 7] was 2.35 and the “Fold-Change IRF7” value [5, 7] was 1.88. The “Fold-Change ISG15” value [5, 7] was 1.89, the “Fold-Change MIR3614//TRIM25” value [5, 7] was 1.56 and the “Fold-Change MX1” value [5, 7] was 3.68. For the same compound, the “Fold-Change MX2” value [5, 7] was 4.02, the “Fold-Change OASL” value [5, 7] was 2.27 and the “Fold-Change RSAD2” value [5, 7] was 3.79. For the same compound, the “Fold-Change SAMHD1” value [5, 7] was 1.89, the “Fold-Change STAT1” value [5, 7] was 1.73 and the “Fold-Change TNFSF12//TNFSF12-TNFSF13//TNFSF13” value [5, 7] was 1.62. The “Fold-Change TNFSF13B” value [5, 7] was 1.65, the “Fold-Change TRIM14” value [5, 7] was 2.02 and the “Fold-Change USP18” value [5, 7] was 2.26. The “Fold-Change XAF1” value [5, 7] was 1.82, the “expression of a major biological pathway related to viral infection and interferon signaling” value ([5]; UREC human cells) was “significantly modifies” and the “fold changes of IFN related genes IFIT1, IFIT2 and IFIT3 (overexpressed)” value ([5]; UREC human cells) was > 3. The “induction of IFN related gene across doses tested” value ([5]; UREC human cells, doses from 0.2 to 10 microM) was “consistent”, the “expression of mRNA of ACE2” value [3] was “significantly reduce” and the “protein level of ACE2” value [3] was “significantly reduce”.
